Patent publication US8524635B2, “Antifungal composition” (DSM IP Assets B.V., priority 2006, dated 2013)

What was measured:
[1] = tested on: most fungi; details: for most fungi; cited from earlier work
[2] = tested on: Fusarium mould; details: Example 11 of WO 2004/067699; cited from earlier work
[3] = tested on: Fusarium oxysporum f. sp. tulipae CBS 116593; assay: Wounded tulip bulbs infected after harvest, treated and stored 15 days at 24° C., visual mould growth; format: in vivo; details: 15 days storage; for Amount of non-infected bulbs (in %): control 40; for Amount of bulbs with visible moulds (in %): control 60
Text: In this experiment tulip bulbs of the variety Prominence were infected just after harvesting with a spore suspension of Fusarium oxysporum f. sp. tulipae CBS 116593 and treated with the antifungal compositions presented in Table 3. This time, the bulbs were not planted but stored. In this experiment the efficacy of the antifungal composition during the storage of the bulbs was studied.
After harvesting, the outer dry skin of the bulbs was removed and the bulbs were disinfected by applying a treatment with 4% (v/v) Glorix® for 5 minutes. The bulbs were dried and a lesion of a few millimeters was made in the surface of the bulb using a knife. The wound was infected with 15 μl of a spore suspension of Fusarium oxysporum f. sp. tulipae; this way approximately 10.000 mould spores infected the wound after which the bulbs were treated with 30 μl of the compositions described in Table 3. Twenty bulbs were treated per composition. In one experiment the treatment with the antifungal composition was applied 12 hours after infection. The bulbs were incubated for 15 days at a temperature of 24° C. after which the bulbs were examined visually on mould growth.

[4] = tested on: Fusarium oxysporum; details: bulbs dipped two hours at 43.5° C.; Dekker and Langerak (1979); cited from earlier work
[5] = cited from earlier work
[6] = tested on: Fusarium oxysporum f. sp. tulipae CBS116591 and Fusarium oxysporum f. sp. tulipae Tu467; assay: Tulip bulbs (Prominence) inoculated with mould spores, treated, planted in pots; infection scored at full bloom; format: in vivo; details: for % of bulbs infected: average of 60 bulbs, control 100
Experimental: (§1) In this example tulip bulbs of the variety Prominence were treated with a 1:1 mixture of spores of the pathogenic moulds Fusarium oxysporum f. sp. tulipae CBS116591 and Fusarium oxysporum f. sp. tulipae Tu467 by submersing the bulbs for 30 minutes in a suspension containing 50.000-100.000 spores per ml. The mould spores were obtained using well-known methods. It should be noticed that in this challenge test the effect of the compositions was tested under very severe circumstances, because a very high number of mould spores was used. In real practise, the disease pressure will be less severe.
(§2) After the inoculation with mould spores the bulbs were dried following well-known methods. 40-60 minutes after drying the bulbs were treated with the different compositions described in Table 1. The compositions were prepared according to the instructions described on the label. All compositions contained 0.1% (v/v) of the sticking agent Prolong® (Holland Fyto, The Netherlands) and the surfactant Zipper® (Asepta BV, The Netherlands) in a concentration of 1 ml/l. Subsequently, the bulbs were planted in soil in pots (10 bulbs per pot) and incubated under well known standard conditions for growing tulips.
The bulbs were examined for mould infection when the flowers were at full bloom. For each incubation the average observation of 60 bulbs is given. Statistical analysis was performed after an ASIN transformation. The LSD at P=5% was 6.50.

[7] = tested on: Helminthosporium solani; assay: Seed-potatoes naturally contaminated with silver scurf, sprayed and stored; mould growth and sporulation; format: in vivo
Experimental: Freshly harvested seed-potatoes naturally contaminated with silver scurf were selected for this experiment. The seed-potatoes were treated with the compositions described in Table 4. All compositions contained 0.1% (v/v) of the sticking agent Prolong® (Holland Fyto, The Netherlands) and the surfactant Zipper® (Asepta BV, The Netherlands) in a concentration of 1 ml/l. Said compositions were sprayed on the seed-potatoes using well-known methods after which the seed-potatoes were stored under standard conditions. For each composition 9×25 seed-potatoes were used; of each composition one triple set of seed-potatoes (3×25) was judged visually on mould growth after 1 month of storage (t=1), after 3 months of storage (t=3) and after 6 months of storage (t=6). The mould growth is reported as increase of surface covered with moulds (in percentage). In addition the sporulation of the moulds on the seed-potatoes was examined and scored on a scale from 0 to 4 (0=no sporulation; 4=high sporulation).

[8] = tested on: Fusarium oxysporum f. sp. tulipae CBS116591 and Fusarium oxysporum f. sp. tulipae Tu467; assay: Tulip bulb treatment as in Example 1, infected bulbs scored and grouped by ANOVA; format: in vivo; details: control 90.0, LSD at P=5% 6.50
Experimental: as §1, §2
This example describes the results of an experiment performed as described in Example 1. Just as in the experiment performed in Example 1, the pH of all solutions was adjusted to 5.7 with KOH or K2CO3 which results in a mixture of two phosphites, KH2PO3 and K2HPO3.
The results obtained with a composition comprising 25% of a standard cocktail which is generally applied in practice are included. This standard cocktail contains the commercial products 0.5% (v/v) Captan (546 gram active ingredient per liter), 0.3% (v/v) Prochloraz (450 g/l) and 1% (v/v) Topsin M (500 g/l). The number of infected bulbs was scored and grouped using the well-known statistical method ANOVA (LSD at P=5% was 6.50).

Compound: C[C@@H]1C/C=C/C=C/C=C/C=C/[C@H](O[C@@H]2O[C@H](C)[C@@H](O)[C@H](N)[C@@H]2O)C[C@@H]2O[C@](O)(C[C@@H](O)C[C@H]3O[C@@H]3/C=C/C(=O)O1)C[C@H](O)[C@H]2C(=O)O [natamycin]
- MIC (Minimal Inhibitory Concentration) [1]: less than 10 ppm
- yellow mould spots on leaves growing from treated tulip bulbs (in words) [2]: some yellow spots
- Amount of non-infected bulbs (in %) ([3]; 500 ppm natamycin): 60%
- Amount of bulbs with visible moulds (in %) ([3]; 500 ppm natamycin): 40%
- preventing the spread of Fusarium oxysporum in the water baths (in words) [4]: as effective as organic mercury or formalin
- solubility in water [5]: 30-50 ppm
- % of bulbs infected ([6]; natamycin 0.2 g/l): 88%
- % of bulbs infected ([6]; natamycin 0.5 g/l): 90%
- Increase in percentage of the surface of seed-potatoes covered with mould ([7]; natamycin 2000 ppm, t = 1 (1 month of storage), water control 3.8): 1.5%
- Sporulation of silver scurf moulds on seed potatoes ([7]; natamycin 2000 ppm, t = 1, scale 0 to 4, water control 2.7): 0.8
- Increase in percentage of the surface of seed-potatoes covered with mould ([7]; natamycin 2000 ppm, t = 3 (3 months of storage), water control 3.4): 3.0%
- Sporulation of silver scurf moulds on seed potatoes ([7]; natamycin 2000 ppm, t = 3, scale 0 to 4, water control 1.8): 1.1
- Increase in percentage of the surface of seed-potatoes covered with mould ([7]; natamycin 2000 ppm, t = 6 (6 months of storage), water control 7.8): 3.8%
- Sporulation of silver scurf moulds on seed potatoes ([7]; natamycin 2000 ppm, t = 6, scale 0 to 4, water control 2.4): 1.8
- Increase in percentage of the surface of seed-potatoes covered with mould ([7]; natamycin 5000 ppm, t = 1 (1 month of storage), water control 3.8): 0.8%
- Sporulation of silver scurf moulds on seed potatoes ([7]; natamycin 5000 ppm, t = 1, scale 0 to 4, water control 2.7): 0.6
- Increase in percentage of the surface of seed-potatoes covered with mould ([7]; natamycin 5000 ppm, t = 3 (3 months of storage), water control 3.4): 2.6%
- Sporulation of silver scurf moulds on seed potatoes ([7]; natamycin 5000 ppm, t = 3, scale 0 to 4, water control 1.8): 1.2
- Increase in percentage of the surface of seed-potatoes covered with mould ([7]; natamycin 5000 ppm, t = 6 (6 months of storage), water control 7.8): 3.5%
- Sporulation of silver scurf moulds on seed potatoes ([7]; natamycin 5000 ppm, t = 6, scale 0 to 4, water control 2.4): 0.7
- Score (mould infection of tulip bulbs) ([8]; 200 ppm natamycin): 76.0
- Score (mould infection of tulip bulbs) ([8]; 500 ppm natamycin): 75.0

Compound: copper lignosulphonate
- effect on mould infection of tulip bulbs (in words) ([6]; conclusion from Table 1): did not lead to reduction of moulds
- % of bulbs infected ([6]; copper lignosulphonate 2 g/l): 97%

Compound: potassium phosphite
- Amount of non-infected bulbs (in %) ([3]; 120 mM phosphite): 50%
- Amount of bulbs with visible moulds (in %) ([3]; 120 mM phosphite): 50%
- % of bulbs infected ([6]; potassium phosphite 20 g/l): 87%
- Increase in percentage of the surface of seed-potatoes covered with mould ([7]; phosphite 120 mM, t = 1 (1 month of storage), water control 3.8): 2.5%
- Sporulation of silver scurf moulds on seed potatoes ([7]; phosphite 120 mM, t = 1, scale 0 to 4 (0=no sporulation; 4=high sporulation), water control 2.7): 1.3
- Increase in percentage of the surface of seed-potatoes covered with mould ([7]; phosphite 120 mM, t = 3 (3 months of storage), water control 3.4): 4.0%
- Sporulation of silver scurf moulds on seed potatoes ([7]; phosphite 120 mM, t = 3, scale 0 to 4, water control 1.8): 1.0
- Increase in percentage of the surface of seed-potatoes covered with mould ([7]; phosphite 120 mM, t = 6 (6 months of storage), water control 7.8): 6.9%
- Sporulation of silver scurf moulds on seed potatoes ([7]; phosphite 120 mM, t = 6, scale 0 to 4, water control 2.4): 1.3
- Score (mould infection of tulip bulbs) ([8]; 120 mM phosphite, pH 5.7): 72.9
